Organism: Rattus norvegicus
Experiment: Open TG-GATES - Regimen: Daily Repeat
Format: toxicity, organism-based, Sprague-Dawley
Design: regimen Daily Repeat, gender Male, age 6 weeks
Settings: in vivo, po, route gavage; for TBIL / TC / TG / TP / gamma-GTP / ALP / ALT / AST / BUN / CRE / Ca / Cl / DBIL / K / LDH / Na / PL / RALB / IP: tissue Plasma; for APTT / Bas / Eos / Fbg / Hb / Ht / Lym / MCH / MCHC / MCV / PT / Plat / RBC / Ret / WBC / Mono / Neu: tissue Blood; for LIVER: tissue Liver
[1] = 1 mg/kg, […], dose level Low, time 28 day
[2] = 3 mg/kg, 72 h, dose level Middle, time 3 day
[3] = 3 mg/kg, 72 h, tissue Kidney, dose level Middle, time 3 day
[4] = 3 mg/kg, […], dose level Middle, time 14 day
[5] = 3 mg/kg, […], dose level Middle, time 28 day
[6] = 3 mg/kg, […], tissue Kidney, dose level Middle, time 14 day
[7] = 3 mg/kg, […], tissue Kidney, dose level Middle, time 28 day
[8] = 10 mg/kg, 72 h, dose level High, time 3 day
[9] = 10 mg/kg, 72 h, tissue Kidney, dose level High, time 3 day
[10] = 10 mg/kg, […], dose level High, time 14 day
[11] = 10 mg/kg, […], dose level High, time 28 day
[12] = 10 mg/kg, […], tissue Kidney, dose level High, time 14 day
[13] = 10 mg/kg, […], tissue Kidney, dose level High, time 28 day

SMILES: C#C[C@]1(O)CC[C@H]2[C@@H]3CCc4cc(O)ccc4[C@H]3CC[C@@]21C [ETHINYL ESTRADIOL]
- TBIL [1]: 0.1 mg/dL
- TC [1]: 50.6 mg/dL
- TG [1]: 82 mg/dL
- TP [1]: 6.8 g/dL
- gamma-GTP [1]: 3.2 IU/L
- TERMINAL_BW [2]: 201.7 g
- APTT [2]: 22.6 s
- Bas [2]: 0%
- Eos [2]: 1%
- Fbg [2]: 302.4 mg/dL
- Hb [2]: 13.7 g/dL
- Ht [2]: 40.3%
- Lym [2]: 76.4%
- MCH [2]: 20.9 pg
- MCHC [2]: 34.1%
- MCV [2]: 61.5 fL
- PT [2]: 13.5 s
- Plat [2]: 106.8 x10_4/uL
- RBC [2]: 656.8 x10_4/ul
- Ret [2]: 4.4%
- WBC [2]: 75.4 x10_2/uL
- KIDNEY_L [3]: 0.9 g
- KIDNEY_R [3]: 1 g
- LIVER [2]: 12.6 g
- ALP [2]: 2898.2 IU/L
- ALT [2]: 40.8 IU/L
- AST [2]: 66.2 IU/L
- BUN [2]: 9.8 mg/dL
- CRE [2]: 0.2 mg/dL
- Ca [2]: 10.5 mg/dL
- Cl [2]: 108.2 meq/L
- DBIL [2]: 0.038 mg/dL
- K [2]: 4 meq/L
- LDH [2]: 77.8 IU/L
- Na [2]: 143.6 meq/L
- PL [2]: 74.8 mg/dL
- RALB [2]: 2.6 g/dL
- TBIL [2]: 0.07 mg/dL
- TC [2]: 24.8 mg/dL
- TG [2]: 55.6 mg/dL
- TP [2]: 5.6 g/dL
- TERMINAL_BW [4]: 223.6 g
- TERMINAL_BW [5]: 227.7 g
- APTT [4]: 19.5 s
- Bas [4]: 0%
- Eos [4]: 1%
- Fbg [4]: 316.6 mg/dL
- Ht [4]: 37.1%
- Lym [4]: 76.2%
- MCH [4]: 20.2 pg
- MCHC [4]: 36%
- MCV [4]: 56.2 fL
- Mono [4]: 2.2%
- Neu [4]: 20%
- PT [4]: 13.6 s
- Plat [4]: 149.1 x10_4/uL
- RBC [4]: 659.8 x10_4/ul
- Ret [4]: 2.4%
- WBC [4]: 96.9 x10_2/uL
- APTT [5]: 24.1 s
- Bas [5]: 0%
- Fbg [5]: 301 mg/dL
- Ht [5]: 37.2%
- Lym [5]: 77.6%
- MCH [5]: 18.7 pg
- MCHC [5]: 36.1%
- MCV [5]: 51.7 fL
- Mono [5]: 2.2%
- PT [5]: 14 s
- Plat [5]: 110.2 x10_4/uL
- RBC [5]: 719 x10_4/ul
- Ret [5]: 2%
- WBC [5]: 69.4 x10_2/uL
- KIDNEY_L [6]: 1 g
- KIDNEY_R [6]: 1 g
- KIDNEY_TOTAL [6]: 2 g
- KIDNEY_L [7]: 1 g
- KIDNEY_R [7]: 1 g
- LIVER [4]: 15.2 g
- LIVER [5]: 13.8 g
- ALP [4]: 2422.2 IU/L
- ALT [4]: 39.2 IU/L
- AST [4]: 55.4 IU/L
- BUN [4]: 16.4 mg/dL
- CRE [4]: 0.3 mg/dL
- Cl [4]: 105.4 meq/L
- DBIL [4]: 0.088 mg/dL
- IP [4]: 6.2 mg/dL
- LDH [4]: 88.2 IU/L
- Na [4]: 143.8 meq/L
- PL [4]: 126.8 mg/dL
- RALB [4]: 3 g/dL
- TBIL [4]: 0.2 mg/dL
- TC [4]: 40.6 mg/dL
- TG [4]: 76.4 mg/dL
- TP [4]: 6.8 g/dL
- gamma-GTP [4]: 4.4 IU/L
- ALP [5]: 1503.2 IU/L
- ALT [5]: 40.6 IU/L
- AST [5]: 50.6 IU/L
- BUN [5]: 14.8 mg/dL
- CRE [5]: 0.2 mg/dL
- Ca [5]: 10.8 mg/dL
- Cl [5]: 105.2 meq/L
- DBIL [5]: 0.062 mg/dL
- IP [5]: 4.9 mg/dL
- K [5]: 3.9 meq/L
- LDH [5]: 51.4 IU/L
- Na [5]: 143.6 meq/L
- PL [5]: 134 mg/dL
- RALB [5]: 3.1 g/dL
- TBIL [5]: 0.1 mg/dL
- TC [5]: 46.8 mg/dL
- TG [5]: 59.2 mg/dL
- TP [5]: 6.9 g/dL
- gamma-GTP [5]: 9.8 IU/L
- TERMINAL_BW [8]: 202.8 g
- APTT [8]: 17.7 s
- Bas [8]: 0.2%
- Eos [8]: 1%
- Fbg [8]: 289.4 mg/dL
- Hb [8]: 13.2 g/dL
- Ht [8]: 38.8%
- Lym [8]: 81.8%
- MCHC [8]: 34.2%
- MCV [8]: 62.2 fL
- Mono [8]: 4.8%
- Neu [8]: 12%
- Plat [8]: 114.3 x10_4/uL
- RBC [8]: 623.8 x10_4/ul
- Ret [8]: 4.8%
- WBC [8]: 91.7 x10_2/uL
- KIDNEY_L [9]: 1 g
- KIDNEY_R [9]: 1 g
- LIVER [8]: 13.9 g
- ALP [8]: 2718.6 IU/L
- ALT [8]: 40.8 IU/L
- AST [8]: 63 IU/L
- BUN [8]: 9.4 mg/dL
- CRE [8]: 0.2 mg/dL
- Ca [8]: 10.3 mg/dL
- Cl [8]: 107.8 meq/L
- DBIL [8]: 0.044 mg/dL
- IP [8]: 7.8 mg/dL
- K [8]: 4.3 meq/L
- LDH [8]: 76.8 IU/L
- PL [8]: 65.8 mg/dL
- RALB [8]: 2.5 g/dL
- TBIL [8]: 0.082 mg/dL
- TC [8]: 23.2 mg/dL
- TG [8]: 30.2 mg/dL
- TP [8]: 5.3 g/dL
- gamma-GTP [8]: 1 IU/L
- TERMINAL_BW [10]: 202.6 g
- TERMINAL_BW [11]: 211.1 g
- APTT [10]: 20.6 s
- Bas [10]: 0%
- Eos [10]: 1%
- Fbg [10]: 254 mg/dL
- Hb [10]: 13.9 g/dL
- Ht [10]: 39%
- Lym [10]: 78.2%
- MCH [10]: 20.6 pg
- MCHC [10]: 35.7%
- MCV [10]: 57.8 fL
- Mono [10]: 2.6%
- PT [10]: 14 s
- Plat [10]: 122.3 x10_4/uL
- RBC [10]: 675.2 x10_4/ul
- Ret [10]: 0.9%
- WBC [10]: 71.4 x10_2/uL
- APTT [11]: 24.9 s
- Bas [11]: 0%
- Eos [11]: 0.6%
- Fbg [11]: 258.6 mg/dL
- Hb [11]: 12.4 g/dL
- Ht [11]: 33.9%
- Lym [11]: 78.6%
- MCH [11]: 19 pg
- MCHC [11]: 36.6%
- MCV [11]: 51.7 fL
- Mono [11]: 2%
- Neu [11]: 18.2%
- Plat [11]: 120.4 x10_4/uL
- RBC [11]: 656.4 x10_4/ul
- Ret [11]: 1.9%
- WBC [11]: 61.3 x10_2/uL
- KIDNEY_L [12]: 1 g
- KIDNEY_R [12]: 1 g
- KIDNEY_L [13]: 1 g
- KIDNEY_R [13]: 1 g
- LIVER [10]: 14.2 g
- LIVER [11]: 15.1 g
- ALP [10]: 2093.8 IU/L
- AST [10]: 58.4 IU/L
- BUN [10]: 15.4 mg/dL
- CRE [10]: 0.2 mg/dL
- Cl [10]: 104.6 meq/L
- DBIL [10]: 0.074 mg/dL
- IP [10]: 6.4 mg/dL
- LDH [10]: 125.2 IU/L
- Na [10]: 144.8 meq/L
- PL [10]: 89.8 mg/dL
- RALB [10]: 3.1 g/dL
- TBIL [10]: 0.1 mg/dL
- TC [10]: 28.4 mg/dL
- TG [10]: 30.4 mg/dL
- TP [10]: 7 g/dL
- gamma-GTP [10]: 12.2 IU/L
- ALP [11]: 1817.4 IU/L
- ALT [11]: 61.6 IU/L
- BUN [11]: 16.4 mg/dL
- CRE [11]: 0.2 mg/dL
- Cl [11]: 104.6 meq/L
- DBIL [11]: 0.1 mg/dL
- IP [11]: 5.8 mg/dL
- LDH [11]: 94.4 IU/L
- Na [11]: 145 meq/L
- PL [11]: 118.6 mg/dL
- RALB [11]: 3.3 g/dL
- TBIL [11]: 0.3 mg/dL
- TC [11]: 40 mg/dL
- TG [11]: 60.2 mg/dL
- TP [11]: 7.3 g/dL
- gamma-GTP [11]: 19 IU/L

From ChEMBL document CHEMBL3885861, “Open TG-GATES”
